Experimental data: patent US20050142169A1, “Palatability enhanced composition and method for animal consumption” (priority 2003, published 2005)

Key:
dogs [1] = test: two-bowl preference test, Example 3 (Canine w/d, 3.5% test flavor); assay type: in vivo, dog; details: dry wt. of kibble, test flavor 3.5%
Experimental: Each of the test flavors (3.5%, dry weight basis) was topically applied to a dry, commercial dog food (Canine w/d from Hill's Pet Nutrition, Inc.) after topical application of a commercial dry palatant enhancer in choice white grease (0.6%, dry weight basis) to form a test composition. Each test composition was compared against a control composition in a palatability test as described in Example 1. The control compositions were prepared by topically applying the commercial liquid palatant enhancer (3.5% dry weight basis) to the dry, commercial dog food (Canine w/d) after application of a commercial dry palatant enhancer in choice white grease (0.6%, dry weight basis). Palatability was determined by comparing the test composition and the control composition in a standard two-bowl preference test over two days with 20 dogs as described in Example 1.

dogs [2] = test: two-bowl preference test, Example 2 (Canine r/d); assay type: in vivo, dog; details: dry wt. of kibble
Experimental: Each of the test flavors (2.0%, dry weight basis) was topically applied to a dry, commercial dog food (Canine r/d from Hill's Pet Nutrition, Inc.) after sequential application of soy bean oil (2.0%, dry weight basis) and choice white grease (0.4%, dry weight basis) to form a test composition. Each test composition was compared against a control composition in a palatability test as described in Example 1. The control compositions were prepared by topically applying the commercial liquid palatant enhancer (2.0% dry weight basis) to the dry, commercial dog food (Canine r/d) after sequential application of soy bean oil (2.0%, dry weight basis) and choice white grease (0.4%, dry weight basis). Palatability was determined by comparing the test composition and the control composition in a standard two-bowl preference test over two days with 20 dogs as described in Example 1.

cats = test: two-bowl preference test, Example 6 (Feline w/d); assay type: in vivo, cat; details: dry wt. of kibble
Text: Finally, a commercial dry palatant enhancer (1.4% dry weight basis) was topically applied to the dry kibbles to complete the test composition.

[3] = Exp. No. 7, second set of experiments, 1 ppm
[4] = Exp. No. 8, second set of experiments, 2 ppm
[5] = Exp. No. 9, second set of experiments, 3 ppm
[6] = Exp. No. 10, second set of experiments, 4 ppm
[7] = Exp. No. 11, second set of experiments, 5 ppm
[8] = Exp. No. 12, second set of experiments, 10 ppm

`CC1=C(O)C(=O)C(C)O1` (stereo not shown) [2,5-dimethyl-4-hydroxy-3(2H)-furanone] was tested, and the “Intake Ratio” value (dogs [1]; Exp. No. 1, 87.1 ppm) was 0.7301, the “Preference (%) control composition” value (dogs [1]; Exp. No. 1, 87.1 ppm) was 16.7% and the “Preference (%) test composition” value (dogs [1]; Exp. No. 1, 87.1 ppm) was 83.3%. The “Status (vs. control)” value (dogs [1]; Exp. No. 1, 87.1 ppm) was “Win”, the “Intake Ratio” value (dogs [1]; Exp. No. 2, 130.5 ppm) was 0.7323 and the “Preference (%) control composition” value (dogs [1]; Exp. No. 2, 130.5 ppm) was 8.0%. The “Preference (%) test composition” value (dogs [1]; Exp. No. 2, 130.5 ppm) was 88.0%, the “Status (vs. control)” value (dogs [1]; Exp. No. 2, 130.5 ppm) was “Win” and the “Intake Ratio” value (dogs [1]; Exp. No. 3, 174.0 ppm) was 0.6669. The “Preference (%) control composition” value (dogs [1]; Exp. No. 3, 174.0 ppm) was 24.0%, the “Preference (%) test composition” value (dogs [1]; Exp. No. 3, 174.0 ppm) was 76.0% and the “Status (vs. control)” value (dogs [1]; Exp. No. 3, 174.0 ppm) was “Win”. The “Intake Ratio” value (dogs [1]; Exp. No. 4, 217.5 ppm) was 0.5713, the “Preference (%) control composition” value (dogs [1]; Exp. No. 4, 217.5 ppm) was 40.0% and the “Preference (%) test composition” value (dogs [1]; Exp. No. 4, 217.5 ppm) was 60.0%. The “Status (vs. control)” value (dogs [1]; Exp. No. 4, 217.5 ppm) was “Parity”, the “Intake Ratio” value (dogs [2]; Exp. No. 1, 21.75 ppm) was 0.5843 and the “Preference (%) control composition” value (dogs [2]; Exp. No. 1, 21.75 ppm) was 42.9%. The “Preference (%) test composition” value (dogs [2]; Exp. No. 1, 21.75 ppm) was 50.0%, the “Status (vs. control)” value (dogs [2]; Exp. No. 1, 21.75 ppm) was “Parity” and the “Intake Ratio” value (dogs [2]; Exp. No. 2, 43.5 ppm) was 0.6667. The “Preference (%) control composition” value (dogs [2]; Exp. No. 2, 43.5 ppm) was 16.7%, the “Preference (%) test composition” value (dogs [2]; Exp. No. 2, 43.5 ppm) was 77.8% and the “Status (vs. control)” value (dogs [2]; Exp. No. 2, 43.5 ppm) was “Win”. For the same compound, the “Intake Ratio” value (dogs [2]; Exp. No. 3, 87.1 ppm) was 0.5732, the “Preference (%) control composition” value (dogs [2]; Exp. No. 3, 87.1 ppm) was 29.4% and the “Preference (%) test composition” value (dogs [2]; Exp. No. 3, 87.1 ppm) was 64.7%. The “Status (vs. control)” value (dogs [2]; Exp. No. 3, 87.1 ppm) was “Parity”, the “Intake Ratio” value (dogs [2]; Exp. No. 4, 174.0 ppm) was 0.5523 and the “Preference (%) control composition” value (dogs [2]; Exp. No. 4, 174.0 ppm) was 31.3%. The “Preference (%) test composition” value (dogs [2]; Exp. No. 4, 174.0 ppm) was 50.0%, the “Status (vs. control)” value (dogs [2]; Exp. No. 4, 174.0 ppm) was “Parity” and the “Intake Ratio” value (dogs [2]; Exp. No. 5, 217.5 ppm) was 0.5047. For the same compound, the “Preference (%) control composition” value (dogs [2]; Exp. No. 5, 217.5 ppm) was 66.7%, the “Preference (%) test composition” value (dogs [2]; Exp. No. 5, 217.5 ppm) was 33.3% and the “Status (vs. control)” value (dogs [2]; Exp. No. 5, 217.5 ppm) was “Parity”. The “Intake Ratio” value (dogs [2]; Exp. No. 6, 282.8 ppm) was 0.4297, the “Preference (%) control composition” value (dogs [2]; Exp. No. 6, 282.8 ppm) was 47.1% and the “Preference (%) test composition” value (dogs [2]; Exp. No. 6, 282.8 ppm) was 52.9%. For the same compound, the “Status (vs. control)” value (dogs [2]; Exp. No. 6, 282.8 ppm) was “Parity”, the “Intake Ratio” value (cats; Exp. No. 1, 1 ppm) was 0.7653 and the “Preference (%) control composition” value (cats; Exp. No. 1, 1 ppm) was 20.0%. For the same compound, the “Preference (%) test composition” value (cats; Exp. No. 1, 1 ppm) was 80.0%, the “Status (vs. control)” value (cats; Exp. No. 1, 1 ppm) was “Win” and the “Intake Ratio” value (cats; Exp. No. 2, 2 ppm) was 0.8280. The “Preference (%) control composition” value (cats; Exp. No. 2, 2 ppm) was 17.6%, the “Preference (%) test composition” value (cats; Exp. No. 2, 2 ppm) was 82.6% and the “Status (vs. control)” value (cats; Exp. No. 2, 2 ppm) was “Win”. For the same compound, the “Intake Ratio” value (cats; Exp. No. 3, 3 ppm) was 0.9457, the “Preference (%) control composition” value (cats; Exp. No. 3, 3 ppm) was 4.3% and the “Preference (%) test composition” value (cats; Exp. No. 3, 3 ppm) was 95.7%. For the same compound, the “Status (vs. control)” value (cats; Exp. No. 3, 3 ppm) was “Win”, the “Intake Ratio” value (cats; Exp. No. 4, 4 ppm) was 0.8426 and the “Preference (%) control composition” value (cats; Exp. No. 4, 4 ppm) was 16.0%. The “Preference (%) test composition” value (cats; Exp. No. 4, 4 ppm) was 84.0%, the “Status (vs. control)” value (cats; Exp. No. 4, 4 ppm) was “Win” and the “Intake Ratio” value (cats; Exp. No. 5, 5 ppm) was 0.8957. For the same compound, the “Preference (%) control composition” value (cats; Exp. No. 5, 5 ppm) was 11.1%, the “Preference (%) test composition” value (cats; Exp. No. 5, 5 ppm) was 88.9% and the “Status (vs. control)” value (cats; Exp. No. 5, 5 ppm) was “Win”. The “Intake Ratio” value (cats; Exp. No. 6, 10 ppm) was 0.8596, the “Preference (%) control composition” value (cats; Exp. No. 6, 10 ppm) was 4.2% and the “Preference (%) test composition” value (cats; Exp. No. 6, 10 ppm) was 95.8%. For the same compound, the “Status (vs. control)” value (cats; Exp. No. 6, 10 ppm) was “Win”, the “Intake Ratio” value (cats; [3]) was 0.9077 and the “Preference (%) control composition” value (cats; [3]) was 4.2%. The “Preference (%) test composition” value (cats; [3]) was 95.8%, the “Status (vs. control)” value (cats; [3]) was “Win” and the “Intake Ratio” value (cats; [4]) was 0.7613. For the same compound, the “Preference (%) control composition” value (cats; [4]) was 16.0%, the “Preference (%) test composition” value (cats; [4]) was 84.0% and the “Status (vs. control)” value (cats; [4]) was “Win”. For the same compound, the “Intake Ratio” value (cats; [5]) was 0.8206, the “Preference (%) control composition” value (cats; [5]) was 13.6% and the “Preference (%) test composition” value (cats; [5]) was 86.4%. The “Status (vs. control)” value (cats; [5]) was “Win”, the “Intake Ratio” value (cats; [6]) was 0.8957 and the “Preference (%) control composition” value (cats; [6]) was 4.2%. The “Preference (%) test composition” value (cats; [6]) was 95.7%, the “Status (vs. control)” value (cats; [6]) was “Win” and the “Intake Ratio” value (cats; [7]) was 0.8596. For the same compound, the “Preference (%) control composition” value (cats; [7]) was 12.5%, the “Preference (%) test composition” value (cats; [7]) was 87.5% and the “Status (vs. control)” value (cats; [7]) was “Win”. For the same compound, the “Intake Ratio” value (cats; [8]) was 0.7976, the “Preference (%) control composition” value (cats; [8]) was 15.0% and the “Preference (%) test composition” value (cats; [8]) was 85.0%. The “Status (vs. control)” value (cats; [8]) was “Win”.
